Four compounds from US11040981B2, “Pyrrolotriazine compounds and methods of inhibiting TAM kinases” (Syros Pharmaceuticals, Inc., priority 2017, dated 2021) can be followed below.

What all share (format): biochemical
The target in one experiment is T1, FLT3 (Homo sapiens, UniProt P36888).
T1 sequence (P36888 27-993): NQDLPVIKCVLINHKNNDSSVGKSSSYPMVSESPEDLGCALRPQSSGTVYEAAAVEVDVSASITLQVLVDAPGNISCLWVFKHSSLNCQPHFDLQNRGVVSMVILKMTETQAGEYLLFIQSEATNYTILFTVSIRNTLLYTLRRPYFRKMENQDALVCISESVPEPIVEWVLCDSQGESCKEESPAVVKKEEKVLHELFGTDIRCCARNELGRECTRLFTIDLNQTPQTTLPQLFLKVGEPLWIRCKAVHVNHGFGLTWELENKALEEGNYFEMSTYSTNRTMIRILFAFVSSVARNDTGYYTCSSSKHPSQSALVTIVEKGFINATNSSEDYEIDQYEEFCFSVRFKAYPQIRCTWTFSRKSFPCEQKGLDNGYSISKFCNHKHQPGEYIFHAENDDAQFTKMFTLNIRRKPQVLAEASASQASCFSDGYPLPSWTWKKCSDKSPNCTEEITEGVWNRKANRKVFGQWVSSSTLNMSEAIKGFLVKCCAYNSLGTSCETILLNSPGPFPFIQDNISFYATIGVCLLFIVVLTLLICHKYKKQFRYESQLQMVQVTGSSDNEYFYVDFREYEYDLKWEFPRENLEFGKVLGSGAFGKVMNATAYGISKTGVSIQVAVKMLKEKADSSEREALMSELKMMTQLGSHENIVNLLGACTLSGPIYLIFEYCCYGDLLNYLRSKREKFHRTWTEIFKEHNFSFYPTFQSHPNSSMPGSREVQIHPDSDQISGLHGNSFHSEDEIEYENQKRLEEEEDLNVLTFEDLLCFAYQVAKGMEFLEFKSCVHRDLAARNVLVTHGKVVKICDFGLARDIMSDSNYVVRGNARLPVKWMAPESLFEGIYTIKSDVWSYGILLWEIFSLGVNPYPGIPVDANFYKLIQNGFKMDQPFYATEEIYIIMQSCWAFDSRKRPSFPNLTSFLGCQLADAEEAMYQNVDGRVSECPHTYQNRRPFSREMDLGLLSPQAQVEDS
Nature of the experiment: TR-FRET kinase activity assay, FLT3. The following applies: ATP at Km, 60 minutes. The protocol:
(§1) IC50 values for compound inhibition of AXL, FLT3, MERTK and TYRO3 activity were determined by using a TR-FRET activity assay. A polypeptide substrate with a fluorescent label is phosphorylated on a tyrosine by each enzyme, where the now phosphorylated product is bound by a Europium-labeled antibody specific to that phosphorylation site. The proximity between the antibody and the substrate gives a signal known as TR-FRET. As the enzyme is inhibited by compound, less phosphorylated peptide product is made causing a decrease in overall signal.
(§2) Activity assays were performed in a 384-well, small volume, black microplates in an active enzyme volume of 10 μL and final developed volume of 20 μL. Final assay conditions are 50 mM HEPES pH 7.5, 10 mM MgCl2, 1 mM EGTA, 0.01% Brij 35 and 1 mM DTT all at RT. Enzyme, substrate labeled peptide and compound are mixed, and then the reaction is initiated with the addition of ATP at Km concentration for each enzyme. The reaction is allowed to run 60 minutes and then quenched with a 12.5 mM EDTA (ethylenediamine tetraacetic acid) solution. The plate is then developed with the addition of Europium labeled antibody for a final volume of 20 μL and is then incubated for 30 minutes in darkness. Plates are read in a Pherastar plate reader. Data is analyzed in GraphPad PRISM.
(§3) The results of these assays are shown in Table 1, below, wherein “No.” designates compound number (FIG. 1); “A” represents a value of ≤100 nM; “B” a value of >100 nM and ≤1 μM; “C” a value of >1 μM and ≤10 μM; “D” a value of >10 μM; “ND” is not determined. The ratio of Mer to FLT3 is calculated as follows: FLT3 IC50/Mer IC50. “+” represents a ratio of >2.0 and <10; “++” represents a ratio of between 10 and 100; and “+++” represents a ratio of >100.
(In general: In TR-FRET formats the signal depends on donor and acceptor labels being close together.)

The target of the next experiment is T2, MERTK (Homo sapiens, UniProt Q12866).
T2 sequence (Q12866 21-999): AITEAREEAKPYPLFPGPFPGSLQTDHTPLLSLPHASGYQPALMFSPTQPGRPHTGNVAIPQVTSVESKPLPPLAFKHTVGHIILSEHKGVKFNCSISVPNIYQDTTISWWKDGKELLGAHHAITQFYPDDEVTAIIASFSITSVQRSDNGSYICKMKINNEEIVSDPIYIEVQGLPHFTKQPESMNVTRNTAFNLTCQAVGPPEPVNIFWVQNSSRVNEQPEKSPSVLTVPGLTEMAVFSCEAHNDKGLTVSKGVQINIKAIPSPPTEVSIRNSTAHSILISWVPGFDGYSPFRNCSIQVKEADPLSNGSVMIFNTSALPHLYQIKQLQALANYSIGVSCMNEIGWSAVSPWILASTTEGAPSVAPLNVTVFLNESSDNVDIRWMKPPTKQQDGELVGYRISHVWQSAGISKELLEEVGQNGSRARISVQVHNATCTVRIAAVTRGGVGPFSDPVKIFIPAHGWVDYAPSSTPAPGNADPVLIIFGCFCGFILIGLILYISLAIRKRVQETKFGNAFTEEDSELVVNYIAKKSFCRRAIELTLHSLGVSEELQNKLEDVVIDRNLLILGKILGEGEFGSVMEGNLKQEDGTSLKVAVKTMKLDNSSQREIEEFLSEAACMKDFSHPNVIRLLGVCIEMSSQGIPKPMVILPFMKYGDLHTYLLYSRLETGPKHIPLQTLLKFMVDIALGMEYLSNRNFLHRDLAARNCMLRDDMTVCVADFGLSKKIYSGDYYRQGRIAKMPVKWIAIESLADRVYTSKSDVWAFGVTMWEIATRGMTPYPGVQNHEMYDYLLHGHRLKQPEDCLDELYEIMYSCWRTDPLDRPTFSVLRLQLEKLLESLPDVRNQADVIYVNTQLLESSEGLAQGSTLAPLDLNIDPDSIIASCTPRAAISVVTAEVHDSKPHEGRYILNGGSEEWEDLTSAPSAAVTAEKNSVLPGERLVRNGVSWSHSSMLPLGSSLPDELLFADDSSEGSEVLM
Briefly: TR-FRET kinase activity assay, MERTK. The following applies: for pIC50: TR-FRET activity assay, ATP at Km, 60 minutes, read-out: Mer IC50; for FLT3/Mer ratio (FLT3 IC50/Mer IC50): ratio of Mer to FLT3: FLT3 IC50/Mer IC50. Here is the method:
as §1, §2, §3

The next experiment concerns the target T3, AXL (Homo sapiens, UniProt P30530).
T3 sequence (P30530 26-894): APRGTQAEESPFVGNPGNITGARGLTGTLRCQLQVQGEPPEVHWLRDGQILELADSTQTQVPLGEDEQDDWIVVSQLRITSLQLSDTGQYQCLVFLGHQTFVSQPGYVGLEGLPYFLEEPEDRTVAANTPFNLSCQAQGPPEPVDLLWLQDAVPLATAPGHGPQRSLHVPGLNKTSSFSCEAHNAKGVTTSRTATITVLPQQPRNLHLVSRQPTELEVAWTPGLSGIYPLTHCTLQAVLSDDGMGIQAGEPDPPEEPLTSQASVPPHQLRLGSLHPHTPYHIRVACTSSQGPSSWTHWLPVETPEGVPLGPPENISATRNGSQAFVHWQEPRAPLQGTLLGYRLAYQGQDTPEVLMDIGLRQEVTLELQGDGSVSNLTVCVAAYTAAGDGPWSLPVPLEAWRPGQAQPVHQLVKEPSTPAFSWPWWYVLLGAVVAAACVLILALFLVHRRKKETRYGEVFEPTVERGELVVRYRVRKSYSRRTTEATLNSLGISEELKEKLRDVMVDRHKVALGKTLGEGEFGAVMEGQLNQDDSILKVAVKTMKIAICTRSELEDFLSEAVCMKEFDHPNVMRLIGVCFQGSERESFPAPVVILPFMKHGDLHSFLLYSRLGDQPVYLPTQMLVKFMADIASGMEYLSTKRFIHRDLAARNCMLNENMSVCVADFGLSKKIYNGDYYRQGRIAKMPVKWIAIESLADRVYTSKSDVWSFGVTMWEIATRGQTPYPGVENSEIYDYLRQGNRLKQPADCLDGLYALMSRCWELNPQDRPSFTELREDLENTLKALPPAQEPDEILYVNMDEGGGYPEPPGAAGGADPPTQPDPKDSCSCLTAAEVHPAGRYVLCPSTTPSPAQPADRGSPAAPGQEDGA
Briefly: TR-FRET kinase activity assay, AXL. The note with it: ATP at Km, 60 minutes. Here is the method:
as §1, §2, §3

pIC50: −log10 of the molar value. Structures can show the parent of a compound that is named as a salt.

As a reminder, the pIC50 is the IC50 on a negative log10 scale, so that one unit is a factor of ten. As for `CCCCC[C@H](C)Nc1ncc2c(C(=O)Nc3ccc(F)cc3)cc(C3CCC(O)CC3)n2n1` (stereo partly drawn) [Compound 111, N-(4-fluorophenyl)-7-(4-hydroxycyclohexyl)-2-[[(1S)-1-methylhexyl]amino]pyrrolo[2,1-f][1,2,4]triazine-5-carboxamide], the figures for the pIC50 at FLT3, at MERTK and against AXL were 5.00 to 6.00, 5.00 to 6.00 and under 5.00, respectively. Also, the “FLT3/Mer ratio (FLT3 IC50/Mer IC50)” value at MERTK was “+ (“+” represents a ratio of >2.0 and <10)”.

Turning to `CCCCNc1ncc2c(-c3ccc(S(=O)(=O)N4CCOCC4)cc3)cc([C@H]3CC[C@H](O)CC3)n2n1` [Compound 101], the negative-log IC50 (pIC50) against FLT3, at MERTK and at AXL was at least 7.00 each time. Also, the “FLT3/Mer ratio (FLT3 IC50/Mer IC50)” value on MERTK was “+ (“+” represents a ratio of >2.0 and <10)”.

Turning to `CCCCCC(C)Nc1ncc2c(Nc3ccc(F)cc3)cc(C3CCC(O)CC3)n2n1` [Compound 106, (1S,4r)-4-(5-((4-fluorophenyl)amino)-2-((S)-heptan-2-ylamino)pyrrolo[2,1-f][1,2,4]triazin-7-yl)cyclohexanol hydrochloride], the negative-log IC50 (pIC50) is under 5.00 on FLT3, 6.00 to 7.00 on MERTK and under 5.00 on AXL. The “FLT3/Mer ratio (FLT3 IC50/Mer IC50)” value at MERTK is “++ (“++” represents a ratio of between 10 and 100)”.

As for `COC[C@H](C)Nc1ncc2c(-c3cnn(C[C@@H]4CC(=O)N(C)C4)c3)cc([C@H]3CC[C@H](O)CC3)n2n1` [Compound 476], the pIC50 at FLT3 was 6.00 to 7.00; on MERTK, at least 7.00.
